In patent US20080292736A1, “Bioavailability enhancing activity of carum carvi extracts and fractions thereof” (COUNCIL OF SCIENTIFIC AND INDUSTRIAL RESEARCH, priority 2001, published 2008):

Details: rat, in vivo; for % Enhancement in bioavailability, BE from Zingiber officinale: 35 mg/kg; for % Enhancement in bioavailability, Carum carvi (Cc) Extr.: 30 mg/kg
Method: Bioenhancers of Zingiber officinale, mean 50% alcoholic extract of fresh ginger. The doses remain unchanged whether the bioenhancers are used alone or in combination.
The amount of bioenhancers used are given below: • i. from Carum carvi: extract 30 mg/kg body weight (rats); Fraction No. 1: 15 mg/kg body weight (rats) • ii. piperine 8 mg/kg body weight (rats) • iii. Zingiber officinale: 35 mg/kg body weight (rats) • The drug used was rifampicin (40 mg/kg). The drug alone or in combination with the bioenhancers was administered to rats as given below: • Group 1: control • Group 2: Rifampicin alone • Group 3: bioenhancer alone • Group 4: Rifampicin with Carum carvi bioenhancer
Blood from the control/treated animals at predetermined intervals (0-24 hours) (total 14 timings). Rifampicin was extracted from the blood (plasma) using dichloromethane. […] The mobile phase was phosphate buffer:acetonitrile in a ratio of 40:60, and a flow rate of 1.0 ml/min.

SMILES | % Enhancement in bioavailability, BE from Carum carvi | % Enhancement in bioavailability, Carum carvi + Piperine | % Enhancement in bioavailability, Carum carvi + Zingiber officinale | % Enhancement in bioavailability, BE from Zingiber officinale | % Enhancement in bioavailability, Carum carvi + Zingiber officinale, Extr. (Cc) | % Enhancement in bioavailability, Carum carvi + Zingiber officinale, Frac 1. (Cc) | % Enhancement in bioavailability, Carum carvi + piperine, Extr. (Cc) | % Enhancement in bioavailability, Carum carvi + piperine, Frac 1. (Cc) | % Enhancement in bioavailability, Carum carvi (Cc) Extr.
Nc1nc2c(ncn2COCCO)c(=O)[nH]1 [Acyclovir] | 78% | 100% | 90% | 82% | – | – | – | – | –
NCC[C@H](O)C(=O)N[C@@H]1C[C@H](N)[C@@H](O[C@H]2O[C@H](CN)[C@@H](O)[C@H](O)[C@H]2O)[C@H](O)[C@H]1O[C@H]1O[C@H](CO)[C@@H](O)[C@H](N)[C@H]1O [Amikacin] | 85% | 100% | 92% | Nil | – | – | – | – | –
CC[C@H]1OC(=O)[C@H](C)[C@@H](O[C@H]2C[C@@](C)(OC)[C@@H](O)[C@H](C)O2)[C@H](C)[C@@H](O[C@@H]2O[C@H](C)C[C@H](N(C)C)[C@H]2O)[C@](C)(O)C[C@@H](C)CN(C)[C@H](C)[C@@H](O)[C@]1(C)O [Azithromycin] | 55% | 90% | 86% | 78% | – | – | – | – | –
CC1=C(C(=O)O)N2C(=O)[C@@H](NC(=O)[C@H](N)c3ccc(O)cc3)[C@H]2SC1 [Cefadroxil] | 67% | 95% | 85% | 68% | – | – | – | – | –
C=CC1=C(C(=O)O)N2C(=O)[C@@H](NC(=O)/C(=N\OCC(=O)O)c3csc(N)n3)[C@H]2SC1 [Cefixime] | 80% | 79% | 82% | Nil | – | – | – | – | –
Cc1onc(-c2ccccc2Cl)c1C(=O)N[C@@H]1C(=O)N2[C@@H]1SC(C)(C)[C@@H]2C(=O)O [Cloxacillin] | 110% | 95% | 110% | 76% | – | – | – | – | –
[Cu] [Copper] | – | – | – | nil | Nil | Nil | nil | Nil | nil
COc1cc(/C=C/C(=O)CC(=O)/C=C/c2ccc(O)c(OC)c2)ccc1O [Curcumin] | – | – | – | 49% | 43% | 52% | 42% | 51% | 40%
N[C@@H]1CON=C1O [Cycloserine] | 70% | 80% | 75% | 71% | – | – | – | – | –
O=C(O)Cc1ccccc1Nc1c(Cl)cccc1Cl [Diclofenac] | Nil | 100% | 95% | 90% | – | – | – | – | –
CC[C@H]1OC(=O)[C@H](C)[C@@H](O[C@H]2C[C@@](C)(OC)[C@@H](O)[C@H](C)O2)[C@H](C)[C@@H](O[C@@H]2O[C@H](C)C[C@H](N(C)C)[C@H]2O)[C@](C)(O)C[C@@H](C)C(=O)[C@H](C)[C@@H](O)[C@]1(C)O [Erythromycin] | 70% | 100% | 105% | 68% | – | – | – | – | –
CC[C@@H](CO)NCCN[C@@H](CC)CO [Ethambutol] | Nil | nil | nil | Nil | – | – | – | – | –
Nc1nc2ncc(CNc3ccc(C(=O)N[C@@H](CCC(=O)O)C(=O)O)cc3)nc2c(=O)[nH]1 [Folio Acid] | – | – | – | nil | nil | nil | nil | nil | Nil
